One data set addresses T1, human TLR7 (Homo sapiens, UniProt Q9NYK1).
T1 construct: host or cells: HEK293 (HEK-Blue hTLR7)
T1 sequence (Q9NYK1 27-1049): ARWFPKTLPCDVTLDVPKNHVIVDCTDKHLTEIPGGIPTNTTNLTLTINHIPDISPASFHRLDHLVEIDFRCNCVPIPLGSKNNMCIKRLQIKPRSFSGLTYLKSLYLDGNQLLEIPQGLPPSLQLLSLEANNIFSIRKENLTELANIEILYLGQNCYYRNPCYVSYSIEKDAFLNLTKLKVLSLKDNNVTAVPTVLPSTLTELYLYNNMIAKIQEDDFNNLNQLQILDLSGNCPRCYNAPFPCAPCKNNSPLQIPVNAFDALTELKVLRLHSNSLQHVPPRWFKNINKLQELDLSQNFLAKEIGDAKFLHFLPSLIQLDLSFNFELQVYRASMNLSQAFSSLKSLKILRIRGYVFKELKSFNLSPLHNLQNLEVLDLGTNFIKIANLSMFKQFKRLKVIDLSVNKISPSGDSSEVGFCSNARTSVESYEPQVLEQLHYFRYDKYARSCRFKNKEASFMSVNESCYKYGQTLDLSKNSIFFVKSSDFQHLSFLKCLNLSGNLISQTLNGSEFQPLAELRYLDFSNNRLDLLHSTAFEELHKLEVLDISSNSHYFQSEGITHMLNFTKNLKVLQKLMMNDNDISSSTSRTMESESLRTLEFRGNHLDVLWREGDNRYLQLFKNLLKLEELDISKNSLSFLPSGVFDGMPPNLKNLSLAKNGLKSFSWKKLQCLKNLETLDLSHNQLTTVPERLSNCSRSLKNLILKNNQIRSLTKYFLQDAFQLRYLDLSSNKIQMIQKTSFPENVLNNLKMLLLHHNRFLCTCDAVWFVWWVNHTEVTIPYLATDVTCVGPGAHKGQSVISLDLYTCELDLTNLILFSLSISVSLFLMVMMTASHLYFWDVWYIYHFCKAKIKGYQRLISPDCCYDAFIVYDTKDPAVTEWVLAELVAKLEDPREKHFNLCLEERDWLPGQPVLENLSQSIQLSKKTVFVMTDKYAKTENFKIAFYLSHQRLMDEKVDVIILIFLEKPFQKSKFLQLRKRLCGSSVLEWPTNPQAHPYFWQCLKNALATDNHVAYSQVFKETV
In words: HEK293-Blue-hTLR-7 cells assay. The data set is classed as cell-based. The following applies: HEK293-Blue-hTLR7 cells, R848 stimulation, 20 hrs, SEAP reporter; read-out: HEK/hTLR7 IC50. The text has this: HEK293-Blue-hTLR-7 cells assay:
A stable HEK293-Blue-hTLR-7 cell line was purchased from InvivoGen (Cat. #: hkb-htlr7, San Diego, Calif., USA). These cells were originally designed for studying the stimulation of human TLR7 by monitoring the activation of NF-κB. A SEAP (secreted embryonic alkaline phosphatase) reporter gene was placed under the control of the IFN-β minimal promoter fused to five NF-κB and AP-1-binding sites. The SEAP was induced by activating NF-κB and AP-1 via stimulating HEK-Blue hTLR7 cells with TLR7 ligands. Therefore the reporter expression was declined by TLR7 antagonist under the stimulation of a ligand, such as R848 (Resiquimod), for incubation of 20 hrs. The cell culture supernatant SEAP reporter activity was determined using QUANTI-Blue™ kit (Cat. #: rep-qb1, Invivogen, San Diego, Ca, USA) at a wavelength of 640 nm, a detection medium that turns purple or blue in the presence of alkaline phosphatase.
HEK293-Blue-hTLR7 cells were incubated at a density of 250,000-450,000 cells/mL in a volume of 170 μL in a 96-well plate in Dulbecco's Modified Eagle's medium (DMEM) containing 4.5 g/L glucose, 50 U/mL penicillin, […], […], 2 mM L-glutamine, 10% (v/v) heat-inactivated fetal bovine serum with addition of 20 μL test compound in a serial dilution in the presence of final DMSO at 1% and 10 μL of 20 uM R848 in above DMEM, perform incubation under 37° C. in a CO2 incubator for 20 hrs. Then 20 μL of the supernatant from each well was incubated with 180 μL Quanti-blue substrate solution at 37° C. for 2 hrs and the absorbance was read at 620˜655 nm using a spectrophotometer. The signaling pathway that TLR7 activation leads to downstream NF-κB activation has been widely accepted, and therefore similar reporter assay was modified for evaluating TLR7 antagonist.

The next data set has as its target T2, CYP2D6 (Homo sapiens, UniProt P10635).
T2 construct: tissue BD-Gentest 452117; host or cells: human liver microsomes
In words: CYP inhibition assay in human liver microsome. The data set is classed as in vitro ADME. The following applies: human liver microsomes, probe dextromethorphan, dextromethorphan substrate, percentage inhibition <0: not or weak inhibitor, read-out: CYP 2D6 inhibition % @ 10 μM. The protocol: This is a high throughput screening assay used for assessment of reversible inhibition of CYP2D6 activity of test compounds in human liver microsome (HLM) in early discovery stage.
10 mM DMSO stock solutions of test compounds were diluted in DMSO to generate 2 mM intermediate stock solution. 250 nL of intermediate stock solution were transferred in duplicate into 3 separate 384 well microtitre plates (assay-ready plates). A mixture of HLM and each substrate was made up. 45 μL of HLM substrate mix was then transferred to each well of an assay ready plate and mixed. The negative (solvent) and positive control (standard inhibitor for CYP 2D6) were included in each assay ready plate. The assay ready plate was warmed to 37° C. in an incubator over 10 minutes. 5 μL pre-warmed NADPH regenerating system was added to each incubation well to start the reaction. Final incubation volume was 50 μL. The assay plate then was placed back in the 37° C. incubator. After 10 minutes incubation, incubates were quenched by addition of 50 μL 100% acetonitrile containing internal standards (20 ng/mL D3-Dextrorphan). The supernatants were collected for RapidFire/MS/MS analysis.
RapidFire online solid phase extraction/sample injection system (Agilent) coupled with API4000 triple quadrupole mass spectrometer (AB Sciex) were used for sample analysis. The mobile phase composed of acetonitrile and water supplemented with 0.1% formic acid. A C4 solid phase extraction cartridge is used for sample separation. MS detection is achieved in positive ion MRM mode.
Peak areas for substrate, metabolite and internal standard are determined using the RapidFire integrator software (version 3.6.12009.12296). Peak area ratios (PAR) of metabolite and internal standard (stable-labelled metabolite) are then calculated. The measurement window for each experiment is then defined:
PAR (0% activity)=average PAR for all incubations containing concentrated inhibitor;
Par (100% activity)=average PAR for all incubations containing no inhibitor (DMSO controls);
% Activity (test inhibitor)=
[PAR(test inhibitor)−PAR(0% activity)]/[PAR(100% activity)−PAR(0% activity)]; % Inhibition (test inhibitor)=100−% Activity (test inhibitor).
(In general: Microsomes from liver hold many membrane-bound enzymes, among them those of drug oxidation.)

T2 sequence (P10635 whole entry): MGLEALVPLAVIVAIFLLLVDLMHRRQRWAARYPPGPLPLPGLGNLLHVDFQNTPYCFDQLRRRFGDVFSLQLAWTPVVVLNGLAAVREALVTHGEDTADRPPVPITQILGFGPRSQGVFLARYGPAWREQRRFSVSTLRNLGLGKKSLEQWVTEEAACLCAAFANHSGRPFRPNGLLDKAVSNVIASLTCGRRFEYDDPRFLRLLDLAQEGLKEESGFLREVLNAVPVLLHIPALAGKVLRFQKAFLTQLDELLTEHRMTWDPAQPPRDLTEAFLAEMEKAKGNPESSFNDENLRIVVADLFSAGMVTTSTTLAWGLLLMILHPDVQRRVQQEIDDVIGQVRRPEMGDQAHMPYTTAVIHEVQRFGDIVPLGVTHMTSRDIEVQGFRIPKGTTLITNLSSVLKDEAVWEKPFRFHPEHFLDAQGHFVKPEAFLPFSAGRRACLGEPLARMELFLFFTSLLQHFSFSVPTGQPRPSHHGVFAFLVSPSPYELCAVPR

The inhibition is the drop in the measured response relative to a control, in per cent. Consider `C[C@@H]1CN(c2ccc(C#N)c3ncccc23)C[C@H](CN2CC(n3cc4c(n3)C[C@H](C)NC4)C2)O1` [Example 19, 5-[(2R,6S)-2-methyl-6-[[3-[(6S)-6-methyl-4,5,6,7-tetrahydropyrazolo[4,3-c]pyridin-2-yl]azetidin-1-yl]methyl]morpholin-4-yl]quinoline-8-carbonitrile], for which the IC50 on human TLR7 was 0.019 µM. For the same compound, at CYP2D6, the inhibition at 10 min, 10 µM is -2.5%.
`C[C@@H]1CN(c2ccc(C#N)c3ncccc23)C[C@H](CN2CC(n3ncc4c3CCN[C@@H]4C)C2)O1` [Example 20, 5-[(2R,6S)-2-methyl-6-[[3-[(4R)-4-methyl-4,5,6,7-tetrahydropyrazolo[4,3-c]pyridin-1-yl]azetidin-1-yl]methyl]morpholin-4-yl]quinoline-8-carbonitrile]: on human TLR7, the IC50 is 0.005 µM. Moreover, the inhibition at 10 min, 10 µM on CYP2D6 is -6%.
For `C[C@@H]1CN(c2ccc(C#N)c3ncccc23)C[C@H](CN2CC(n3cc4c(n3)CCN[C@@H]4C)C2)O1` [Example 21, 5-[(2R,6S)-2-methyl-6-[[3-[(4R)-4-methyl-4,5,6,7-tetrahydropyrazolo[4,3-c]pyridin-2-yl]azetidin-1-yl]methyl]morpholin-4-yl]quinoline-8-carbonitrile], in that order: 0.018 µM and 10.5%.
As to `C[C@@H]1CN(c2ccc(C#N)c3ncccc23)C[C@H](CN2CC(n3ncc4c3CCN[C@H]4C)C2)O1` [Example 22, 5-[(2R,6S)-2-methyl-6-[[3-[(4S)-4-methyl-4,5,6,7-tetrahydropyrazolo[4,3-c]pyridin-1-yl]azetidin-1-yl]methyl]morpholin-4-yl]quinoline-8-carbonitrile], the IC50 at human TLR7 stood at 0.005 µM. At CYP2D6, the inhibition at 10 min, 10 µM worked out at 5.5%.
Regarding `C[C@@H]1CN(c2ccc(C#N)c3ncccc23)C[C@H](CN2CC(n3cc4c(n3)CCN[C@H]4C)C2)O1` [Example 23, 5-[(2R,6S)-2-methyl-6-[[3-[(4S)-4-methyl-4,5,6,7-tetrahydropyrazolo[4,3-c]pyridin-2-yl]azetidin-1-yl]methyl]morpholin-4-yl]quinoline-8-carbonitrile], the IC50 at human TLR7 is 0.013 µM. Besides, at CYP2D6, the inhibition at 10 min, 10 µM came out at 3%.
For `C[C@@H]1CN(c2ccc(C#N)c3ncccc23)C[C@H](CN2CCC(n3cc4c(n3)CCNC4)CC2)O1` [Example 36, 5-[(2R,6S)-2-methyl-6-[[4-(4,5,6,7-tetrahydropyrazolo[4,3-c]pyridin-2-yl)-1-piperidyl]methyl]morpholin-4-yl]quinoline-8-carbonitrile], in that order: 0.018 µM and 20.3%.
The corresponding values for `Cc1nn(C2CN(C[C@H]3CN(c4ccc(C#N)c5ncccc45)C[C@@H](C)O3)C2)c2c1CCNC2` [Example 42, 5-[(2R,6S)-2-methyl-6-[[3-(3-methyl-4,5,6,7-tetrahydropyrazolo[3,4-c]pyridin-1-yl)azetidin-1-yl]methyl]morpholin-4-yl]quinoline-8-carbonitrile] are 0.007 µM and 17.5%.

These data come from patent publication US20210300924A1, “5-[6-[[3-(4,5,6,7-TETRAHYDROPYRAZOLO[4,3-C]PYRIDIN-1-YL)AZETIDIN-1-YL]METHYL]MORPHOLIN-4-YL]QUINOLINE-8-CARBONITRILE DERIVATIVES AND SIMILAR COMPOUNDS AS TLR7-9 ANTAGONISTS FOR TREATING SYSTEMIC LUPUS ERYTHEMATOSUS” (Hoffmann-La Roche Inc., priority 2018, published 2021).
